Where no end group is shown, it is not given here.
Key:
E. coli ATCC25922 = assay type: cell-based, Escherichia coli
Description: (§1) The antibacterial activity was evaluated using a standard MIC and MBC assay according to the National Committee for Clinical Laboratory Standards (NCCLS). MIC, MBC assay, and time-kill curves for the optimal peptide are provided in the Supplementary Materials.
Antimicrobial Activity Assays. The antibacterial activity of the peptides was determined using a method designed from the National Committee for Clinical Laboratory Standards (NCCLS) in the United States. All the strains used in the experiment are preserved in the laboratory. Briefly, log phase bacterial cells were diluted in MHB to a final concentration of 0.5-1x10^5 CFU/mL. Subsequently, 50μL of different concentrations of polypeptides were incubated with 50 μL of bacterial solution in sterile 96-well plates. In the minimum inhibitory concentration (MIC) assay, […], and the minimum inhibitory concentration (MIC) was determined by the absorbance at 492 nm of the microplate reader, and the minimum inhibitory concentration (MIC) inhibited 95% of bacteria grow. Determination of minimum bactericidal concentration: the plate was incubated at 37°C for 4 hours, 50 μL of the mixture was taken out of each well, diluted with an appropriate amount of PBS, smeared on the agar plate, and cultured overnight. Colonies were counted and the initial CFU/well was retrospectively calculated the following day. The lowest concentration of peptide that kills 99.9% of bacterial cells is the minimum bactericidal concentration (µM), Each test was replicated at least 3 times.

A. baumannii ATCC19606 = assay type: cell-based, Acinetobacter baumannii
Description: as §1
(§2) Antimicrobial Activity Assays. The antibacterial activity of the peptides was determined using a method designed from the National Committee for Clinical Laboratory Standards (NCCLS) in the United States. All the strains used in the experiment are preserved in the laboratory. Briefly, log phase bacterial cells were diluted in MHB to a final concentration of 0.5-1x10^5 CFU/mL. Subsequently, 50μL of different concentrations of polypeptides were incubated with 50 μL of bacterial solution in sterile 96-well plates. In the minimum inhibitory concentration (MIC) assay, the plate was incubated at 37°C for 24 h, and the minimum inhibitory concentration (MIC) was determined by the absorbance at 492 nm of the microplate reader, and the minimum inhibitory concentration (MIC) inhibited 95% of bacteria grow. Determination of minimum bactericidal concentration: the plate was incubated at 37°C for 4 hours, 50 μL of the mixture was taken out of each well, diluted with an appropriate amount of PBS, smeared on the agar plate, and cultured overnight. Colonies were counted and the initial CFU/well was retrospectively calculated the following day. The lowest concentration of peptide that kills 99.9% of bacterial cells is the minimum bactericidal concentration (µM), Each test was replicated at least 3 times.

S. aureus ATCC29213 = assay type: cell-based, Staphylococcus aureus
Description: as §1, §2

Gram-negative bacteria = test: Geometric mean MIC and therapeutic index, Gram-negative; assay type: cell-based; settings: geometric mean of the peptide MICs against Gram-negative strains
Description: as §1, §2

E. coli K88 = test: Time-kill (bactericidal) curve; assay type: cell-based, Escherichia coli; settings: four times MIC, TSB, 37°C
Description: as §1
The bactericidal curve of the optimal peptide was further determined. […] Each test was replicated at least 3 times.

[1] = test system: E. coli K88 inner membrane; test: Inner membrane integrity assay (PI); assay type: cell-based, Escherichia coli; settings: 4 µM peptide, 30 min
Description: The outer and inner membrane integrity of bacterial cells treated with peptides was assessed using NPN and PI staining, respectively. Full details are provided in the Supplementary Materials.
Inner membrane integrity assay. E. coli K88 cells were washed and resuspended in 0.01 mol l−1 of PBS (pH 7.4) to obtain an OD600 of 0.5, followed by the addition of 10 nmol l−1 of PI (Thermo Fisher Scientific, catalogue no. P1304MP) in the presence of […]. After incubation for 30 min, fluorescence was measured with the excitation wavelength at 535 nm and emission wavelength at 615 nm.

S. aureus Mu50 = test: ROS generation (DCFH-DA); assay type: cell-based, Staphylococcus aureus MRSA; settings: 8 µM DiPGLa-H, 1 h 37°C, DCFH-DA 10 µM
Description: 2′,7′-Dichlorofluorescin diacetate (DCFH-DA) was used to determine the intracellular production of ROS as previously described. S. aureus Mu50 and E. coli K88 cells were diluted until OD600 = 0.4 and incubated in different concentrations of peptide at 37°C for 1 h. Next, the mixed solution was incubated with 10 µM DCFH-DA at 37°C for 1 h. The fluorescence (excitation wavelength = 488 nm, emission wavelength = 525 nm) was monitored with an Infinite 200 pro fluorescence spectrophotometer (Tecan, China). Each test was measured in triplicate and tested twice.

KIAKVALKALKIAKVALKAL-NH2 (C-terminus assumed) [DiPGLa-H]
MBC E. coli ATCC25922 (E. coli ATCC25922; ATCC25922, 4 h): 8 µM | MIC E. coli ATCC25922 (E. coli ATCC25922; ATCC25922, 24 h): 8 µM | MBC A. baumannii ATCC19606 (A. baumannii ATCC19606; ATCC19606, 4 h): 4 µM | MIC A. baumannii ATCC19606 (A. baumannii ATCC19606; ATCC19606, 24 h): 1 µM | MBC S. aureus ATCC29213 (S. aureus ATCC29213; ATCC29213, 4 h): 4 µM | MIC S. aureus ATCC29213 (S. aureus ATCC29213; ATCC29213, 24 h): 4 µM | GMMIC Gram-negative (Gram-negative bacteria): 2.82 µM | time to complete eradication of E. coli K88 (E. coli K88): ≤ 30 min | inner membrane damage (PI) [1]: 267% | elevation of ROS production vs untreated (S. aureus Mu50): 4.6 fold
